Each structure is given as a SMILES string. Where only a bound is given, the exact number is not on record here.

This assay has as its target T1, human KSP motor domain (KSP(367H)) (Homo sapiens, UniProt P52732).
T1 construct: were used to amplify the motor domain and the neck linker region; made in house; host or cells: E. coli BL21 (DE3), vector pRSETa
T1 sequence (P52732 18-359 limits assumed): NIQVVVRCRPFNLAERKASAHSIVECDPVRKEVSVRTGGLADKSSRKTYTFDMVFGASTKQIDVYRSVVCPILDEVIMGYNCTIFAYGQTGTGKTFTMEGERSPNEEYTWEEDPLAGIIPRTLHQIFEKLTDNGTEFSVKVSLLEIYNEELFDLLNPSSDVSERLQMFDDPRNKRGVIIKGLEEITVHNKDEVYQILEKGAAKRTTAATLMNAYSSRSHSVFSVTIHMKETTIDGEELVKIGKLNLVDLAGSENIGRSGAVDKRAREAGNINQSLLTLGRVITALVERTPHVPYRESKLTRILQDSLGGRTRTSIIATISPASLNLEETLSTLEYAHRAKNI
Put plainly: Kinesin ATPhase In Vitro Assay. Type of assay: biochemical. The note with it: kinesin motor domain with microtubules, 1 mM ATP, 23° C.; free phosphate by quinaldine red/ammonium molybdate, 540 nm. The source says: I. Kinesin ATPhase In Vitro Assay
Cloning and Expression of Human Poly-Histidine Tagged KSP Motor Domain (KSP(367H))
Plasmids for the expression of the human KSP motor domain construct were cloned by PCR using a pBluescript full length human KSP construct (Blangy et al., Cell, vol. 83, pp1159-1169, 1995) as a template. The N-terminal primer 5′-[…] (SEQ. ID. NO.: 1) and the C-terminal primer 5′-[…] […] (SEQ. ID. NO.: 2) were used to amplify the motor domain and the neck linker region. The PCR products were digested with AseI and XhoI, ligated into the NdeIlXhoI digestion product of pRSETa (Invitrogen) and transformed into E. coli BL21 (DE3).
Cells were grown at 37 IC to an OD600 of 0.5. […]
The kinesin motor domain is incubated with microtubules, 1 mM ATP (1:1 MgCl2: Na-ATP), and compound at 23° C. in buffer containing 80 mM K-HEPES (pH 7.0), 1 mM EGTA, 1 mM DTT, 1 mM MgCl2, and 50 mM KCl. […] Free phosphate from the ATP hydrolysis reaction is measured via a quinaldine red/ammonium molybdate assay by adding 150 μl of quench C buffer containing a 2:1 ratio of quench A:quench B. Quench A contains 0.1 mg/mil quinaldine red and 0.14% polyvinyl alcohol; quench B contains 12.3 mM ammonium molybdate tetrahydrate in 1.15 M sulfuric acid. The reaction is incubated for 10 minutes at 23° C., and the absorbance of the phospho-molybdate complex is measured at 540 nm.

Take `CC(C)[C@H](N)C(=O)N1CCC(c2cc(F)ccc2F)=CC1c1cccc(O)c1` (some centres unmarked) [Compound 2-2]: the IC50 (in general, the concentration that inhibits the measured activity by half) was no more than 15 µM.

In turn, `CNCC(C)CN(C)C(=O)N1CCC(c2cc(F)ccc2F)=CC1c1cccc(O)c1` (centres unmarked) [Compound 3-3, 4-(2,5-difluorophenyl)-6-(3-hydroxyphenyl)-N-methyl-N-[2-methyl-3-(methylamino)propyl]-3,6-dihydropyridine-1(2H)-carboxamide] yielded a half-maximal inhibitory concentration (IC50) of no more than 15 µM.

The values above are taken from patent publication US7622489B2, “Mitotic kinesin inhibitors” (Merck & Co., Inc., priority 2002, dated 2009).
